In one data set the test system is luciferase reporter ZIKV. As to the kind of experiment: luciferase-based ZIKV reporter assay in Huh7 cells. The data set is classed as cell-based. To be noted: Zika virus, Huh-7, 72 h, read-out: ZIKV Reporter Assay Inhibition (%) at 10 µM. On the procedure:
(§1) In the current study, we continued to use our previously reported luciferase-based ZIKV reporter assay as a primary antiviral screening, by which newly synthesized compounds were tested (at 10 µM) along with NITD008 (Figure 1, at 1 µM), a flavivirus RNA-dependent RNA polymerase (RdRp) inhibitor, and NSC 12155 (Figure 1, at 10 µM), a flavivirus NS5 methyltransferase (MTase) inhibitor, as reference compounds (Table 1). […] For active compounds (>60% titer-reduction), dose-response experiments were performed to determine EC50 (half maximal effective concentration, a concentration that is needed to cause half of the maximum possible pharmacological effect) and CC50 (half cytotoxic concentration, a concentration that is required to reduce cell viability by 50%) values. For selected compounds, EC50 values in the reporter assay were also measured.
(§2) The ZIKV reporter assay and titer-reduction assay were performed as previously reported. Briefly, Huh7 cells (1.5 × 10^4) were seeded in a 96-well plate and inoculated with a luciferase reporter ZIKV (MOI=0.2). After two hours, the cells were treated with medium containing the compound (10 µM). After 3 days post-infection, the cells were lysed, the Nanoluc signal was detected using the Nano-Glo® luciferase assay (Promega), then measured using a Neo 2 plate reader (BioTek, Winooski, VT, USA). For titer-reduction assays, 1.5 × 10^5 Huh7 cell were seeded in a 24-well plate. Next day, the cells were inoculated with ZIKV for two hours. The inoculum was replaced with compound-containing medium (8.5 µM) and incubated for 3 days. Supernatants were collected and viral titers were estimated by plaque assay.
On the technique in general: In a reporter assay the amount or activity of a reporter protein is the signal.

The nature of data set [1]: Cell viability (CC50) assay, MTS-based. To be noted: human, 3 days; for viability at 3 days, 10 µM: 10 µM compound, Huh7 cells, read-out: ZIKV Reporter Assay Viability (%) at 10 µM; for CC50 at 3 days: non-infected Huh7 cells, read-out: CC50. On the procedure: as §1
The cell viability assay was performed in Huh7 cells as previously reported. Briefly, non-infected Huh7 cells were treated with the testing compounds for 3 days. Viability was measured by absorbance at […] using the MTS-based tetrazolium reduction CellTiter 96 Aqueous Non-Radioactive cell proliferation assay (Promega).

The next data set deals with ZIKV. In words: ZIKV titer reduction assay (plaque assay of supernatants) in Huh7 cells. The data set is classed as cell-based. The following applies: Zika virus, Huh7 cells; for inhibition at 8.5 µM: Huh-7, 72 h, 8.5 µM compound, 3 days, read-out: Titer Reduction Assay % at 8.5 µM; for EC50: Huh-7, read-out: Titer Reduction Assay EC50. How it is done: as §1, §2

Some results are limits rather than exact numbers.

On to `Nc1ncnc2c1c(CNc1ccccc1)cn2Cc1ccc([N+](=O)[O-])cc1` [Compound 4, 7-(4-Nitrobenzyl)-5-((phenylamino)methyl)-7H-pyrrolo[2,3-d]pyrimidin-4-amine], for which the inhibition at 10 µM in the data set on luciferase reporter ZIKV is 91%. Besides, the viability at 3 days, 10 µM in data set [1] amounted to 40%.
For `Nc1ncnc2c1c(COc1ccccc1)cn2Cc1ccc([N+](=O)[O-])cc1` [Compound 5, 7-(4-Nitrobenzyl)-5-(phenoxymethyl)-7H-pyrrolo[2,3-d]pyrimidin-4-amine], the inhibition at 10 µM with luciferase reporter ZIKV is 62%. For the same molecule, in the data set on ZIKV, the inhibition at 8.5 µM is 94% and the EC50 stood at 4.3 µM. In data set [1], the viability at 3 days, 10 µM stood at 82% and the CC50 at 3 days stood at 58 µM.
For the molecule `Nc1ncnc2c1c(COc1ccccc1)nn2Cc1ccc([N+](=O)[O-])cc1` [Compound 6, 1-(4-Nitrobenzyl)-3-(phenoxymethyl)-1H-pyrazolo[3,4-d]pyrimidin-4-amine], the inhibition at 10 µM in the data set on luciferase reporter ZIKV is 65%. In the data set on ZIKV, the inhibition at 8.5 µM was found to be 65% and the EC50 is 5.1 µM. Also, in data set [1], the viability at 3 days, 10 µM was 82% and the CC50 at 3 days came out at 39 µM.
On to `Nc1ncnc2c1c(COc1ccccc1)nn2Cc1ccccc1` [Compound 7, 1-Benzyl-3-(phenoxymethyl)-1H-pyrazolo[3,4-d]pyrimidin-4-amine], for which, in the data set with luciferase reporter ZIKV, the inhibition at 10 µM is 0%. The viability at 3 days, 10 µM in data set [1] is 99%.
The like results for `Nc1ncnc2c1c(COc1ccccc1)nn2Cc1ccccc1[N+](=O)[O-]` [Compound 8, 1-(2-Nitrobenzyl)-3-(phenoxymethyl)-1H-pyrazolo[3,4-d]pyrimidin-4-amine] were, in that order, 9% and 103%.
Taken in the same sequence, the figures for `Nc1ncnc2c1c(COc1ccccc1)nn2Cc1cccc([N+](=O)[O-])c1` [Compound 9, 1-(3-Nitrobenzyl)-3-(phenoxymethyl)-1H-pyrazolo[3,4-d]pyrimidin-4-amine] were 90% and 37%.
Taken in the same sequence, the figures for `Nc1ccccc1Cn1nc(COc2ccccc2)c2c(N)ncnc21` [Compound 10, 1-(2-Aminobenzyl)-3-(phenoxymethyl)-1H-pyrazolo[3,4-d]pyrimidin-4-amine] were 0% and 99%.
Consider `Nc1cccc(Cn2nc(COc3ccccc3)c3c(N)ncnc32)c1` [Compound 11, 1-(3-Aminobenzyl)-3-(phenoxymethyl)-1H-pyrazolo[3,4-d]pyrimidin-4-amine], for which, in the data set with luciferase reporter ZIKV, the inhibition at 10 µM stood at 0%. In data set [1], the viability at 3 days, 10 µM stood at 89%.
The like results for `Nc1ccc(Cn2nc(COc3ccccc3)c3c(N)ncnc32)cc1` [Compound 12, 1-(4-Aminobenzyl)-3-(phenoxymethyl)-1H-pyrazolo[3,4-d]pyrimidin-4-pmine] were, in that order, 0% and 95%.
Take `Nc1ncnc2c1c(COc1ccccc1)nn2Cc1ccc(C(F)(F)F)cc1` [Compound 13, 3-(Phenoxymethyl)-1-(4-(trifluoromethyl)benzyl)-1H-pyrazolo[3,4-d]pyrimidin-4-amine]: the inhibition at 10 µM in the data set on luciferase reporter ZIKV worked out at 68%. Also, in the data set on ZIKV, the inhibition at 8.5 µM turned out to be 73% and the EC50 stood at 6.5 µM. Also, in data set [1], the viability at 3 days, 10 µM amounted to 86% and the CC50 at 3 days is more than 100 µM.
For the molecule `CS(=O)(=O)c1ccc(Cn2nc(COc3ccccc3)c3c(N)ncnc32)cc1` [Compound 14, 1-(4-(Methylsulfonyl)Benzyl)-3-(phenoxymethyl)-1H-pyrazolo[3,4-d]pyrimidin-4-amine], the inhibition at 10 µM with luciferase reporter ZIKV amounted to 58%. The inhibition at 8.5 µM with ZIKV was 52%. In addition, in data set [1], the viability at 3 days, 10 µM is 93%.
For the molecule `N#Cc1ccc(Cn2nc(COc3ccccc3)c3c(N)ncnc32)cc1` [Compound 15, 4-((4-Amino-3-(phenoxymethyl)-1H-pyrazolo[3,4-d]pyrimidin-1-yl)methyl)benzonitrile], the inhibition at 10 µM in the data set with luciferase reporter ZIKV amounted to 37%. Also, in data set [1], the viability at 3 days, 10 µM was 99%.
Taken in the same sequence, the figures for `COC(=O)c1ccccc1Cn1nc(COc2ccccc2)c2c(N)ncnc21` [Compound 16, Methyl 2-((4-Amino-3-(phenoxymethyl)-1H-pyrazolo[3,4-d]pyrimidin-1-yl)methyl)benzoate] were 0% and 95%.
The like results for `COC(=O)c1cccc(Cn2nc(COc3ccccc3)c3c(N)ncnc32)c1` [Compound 17, Methyl 3-((4-Amino-3-(phenoxymethyl)-1H-pyrazolo[3,4-d]pyrimidin-1-yl)methyl)benzoate] were, in that order, 88% and 38%.
The like results for `COC(=O)c1ccc(Cn2nc(COc3ccccc3)c3c(N)ncnc32)cc1` [Compound 18, Methyl 4-((4-amino-3-(phenoxymethyl)-1H-pyrazolo[3,4-d]pyrimidin-1-yl)methyl)benzoate] were, in that order, 6% and 95%.
For `NC(=O)c1ccc(Cn2nc(COc3ccccc3)c3c(N)ncnc32)cc1` [Compound 19, 4-((4-Amino-3-(phenoxymethyl)-1H-pyrazolo[3,4-d]pyrimidin-1-yl)methyl)benzamide], in the data set on luciferase reporter ZIKV, the inhibition at 10 µM was 63%. Moreover, the inhibition at 8.5 µM in the data set on ZIKV is 22%. Moreover, the viability at 3 days, 10 µM in data set [1] was 77%.
Turning to `Nc1ncnc2c1c(COc1ccccc1)nn2Cc1ccnc(Cl)c1` [Compound 20, 1-((2-Chloropyridin-4-yl)methyl)-3-(phenoxymethyl)-1H-pyrazolo[3,4-d]pyrimidin-4-amine], the inhibition at 10 µM in the data set with luciferase reporter ZIKV worked out at 88%. Also, the viability at 3 days, 10 µM in data set [1] was determined as 39%.
Taken in the same sequence, the figures for `Nc1cc(Cn2nc(COc3ccccc3)c3c(N)ncnc32)ccn1` [Compound 22, 1-((2-Aminopyridin-4-yl)methyl)-3-(phenoxymethyl)-1H-pyrazolo[3,4-d]pyrimidin-4-amine] were 67% and 36%.
The like results for `CC(C)(C)OC(=O)Nc1cc(Cn2nc(COc3ccccc3)c3c(N)ncnc32)ccn1` [Compound 24, Tert-Butyl (4-((4-Amino-3-(phenoxymethyl)-1H-pyrazolo[3,4-d]pyrimidin-1-yl)methyl)pyridin-2-yl)carbamate] were, in that order, 62% and 36%.
The like results for `CC(C)(C)OC(=O)Nc1ccc(Cn2nc(COc3ccccc3)c3c(N)ncnc32)cn1` [Compound 25, Tert-Butyl (5-((4-Amino-3-(phenoxymethyl)-1H-pyrazolo[3,4-d]pyrimidin-1-yl)methyl)pyridin-2-yl)carbamate] were, in that order, 68% and 40%.
`Cc1ccccc1OCc1nn(Cc2ccc([N+](=O)[O-])cc2)c2ncnc(N)c12` [Compound 26, 1-(4-Nitrobenzyl)-3-((o-tolyloxy)methyl)-1H-pyrazolo[3,4-d]pyrimidin-4-amine]: the inhibition at 10 µM in the data set on luciferase reporter ZIKV was found to be 60%. In addition, the viability at 3 days, 10 µM in data set [1] turned out to be 77%.
The like results for `Nc1ncnc2c1c(COc1ccccc1Cl)nn2Cc1ccc([N+](=O)[O-])cc1` [Compound 29, 3-((2-Chlorophenoxy)methyl)-1-(4-nitrobenzyl)-1H-pyrazolo[3,4-d]pyrimidin-4-amine] were, in that order, 34% and 94%.

For orientation: viability means a read-out of living cells in per cent, often relative to untreated cells. A word on the EC50: it is the concentration at which the effect is half-maximal. One may read the CC50 as the concentration that lowers cell viability or growth by half.

The values are drawn from PMC9502836, “Zika Virus Inhibitors Based on a 1,3-Disubstituted 1H-Pyrazolo[3,4-d]pyrimidine-amine Scaffold” (Molecules, 2022).
